Laboratory results reported in BindingDB's records for patent US10322118 (Dartmouth College, 2019).

Key:
Putative hydrolase = target: T1, Putative hydrolase (Pseudomonas aeruginosa (strain UCBPP-PA14), UniProt A0A0H2ZD27); assay: Biochemical Characterization of Cif Inhibitors
T1 sequence (A0A0H2ZD27 whole entry): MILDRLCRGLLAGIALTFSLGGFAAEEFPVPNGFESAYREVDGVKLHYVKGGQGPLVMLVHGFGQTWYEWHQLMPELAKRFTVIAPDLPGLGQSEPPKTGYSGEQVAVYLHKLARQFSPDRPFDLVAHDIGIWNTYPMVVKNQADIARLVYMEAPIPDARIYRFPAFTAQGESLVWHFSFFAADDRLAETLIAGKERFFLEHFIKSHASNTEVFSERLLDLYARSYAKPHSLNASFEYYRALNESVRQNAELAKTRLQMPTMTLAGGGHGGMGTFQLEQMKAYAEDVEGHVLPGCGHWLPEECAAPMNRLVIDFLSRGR

[1] = target: T2, Bifunctional epoxide hydrolase 2 (Homo sapiens, UniProt P34913); assay: Biochemical Characterization of Cif Inhibitors
T2 sequence (P34913 whole entry): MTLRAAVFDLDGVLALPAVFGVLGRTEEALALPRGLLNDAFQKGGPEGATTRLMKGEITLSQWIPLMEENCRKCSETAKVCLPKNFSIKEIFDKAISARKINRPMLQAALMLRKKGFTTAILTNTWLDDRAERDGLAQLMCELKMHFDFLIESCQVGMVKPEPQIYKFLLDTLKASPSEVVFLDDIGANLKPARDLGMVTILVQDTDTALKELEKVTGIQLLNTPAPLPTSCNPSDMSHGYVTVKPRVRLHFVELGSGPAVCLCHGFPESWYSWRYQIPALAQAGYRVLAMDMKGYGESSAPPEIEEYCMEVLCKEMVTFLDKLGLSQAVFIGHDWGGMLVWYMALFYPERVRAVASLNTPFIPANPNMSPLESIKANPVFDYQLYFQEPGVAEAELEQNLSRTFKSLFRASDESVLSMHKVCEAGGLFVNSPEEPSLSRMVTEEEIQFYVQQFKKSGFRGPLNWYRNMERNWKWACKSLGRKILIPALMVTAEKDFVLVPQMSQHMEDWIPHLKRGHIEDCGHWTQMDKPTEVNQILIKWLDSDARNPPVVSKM

With `O=C(O)Cc1cc(I)c(Oc2cc(I)c(O)c(I)c2)c(I)c1` [US10322118, Entry 1] the IC50 (Putative hydrolase) was 20 µM.

For `O=C(O)Cc1cc(I)c(Oc2ccc(O)cc2)c(I)c1` [US10322118, Entry 3], the IC50 (Putative hydrolase) was 100 µM.

`Cc1cc(OCC(=O)O)cc(C)c1Cc1ccc(O)c(C(C)C)c1` [US10322118, Entry 7] gave an IC50 (Putative hydrolase) of over 100 µM.

In the case of `Oc1ccc(Oc2ccccc2)cc1` [US10322118, Entry 9], the IC50 (Putative hydrolase) is reported as over 100 µM.

`Nc1ccc(Oc2ccccc2)cc1` [US10322118, Entry 10] gave an IC50 (Putative hydrolase) of over 100 µM.

`O=C(O)c1ccc(Oc2ccccc2)cc1` [US10322118, Entry 11] was tested, and the IC50 (Putative hydrolase) was over 100 µM.

With `CCC(=O)Oc1ccc(NC(=O)NC23CC4CC(CC(C4)C2)C3)cc1` [US10322118, Urea-Based Scaffold Entry 1] the IC50 [1] was 0.0038 µM and the IC50 (Putative hydrolase) was over 100 µM.

In the case of `Cc1cc(C)cc(NC(=O)NC(=O)c2c(F)cccc2F)c1` [US10322118, Urea-Based Scaffold Entry 3], the IC50 (Putative hydrolase) is reported as 1.8 µM.

In the case of `O=C(NC(=O)c1c(F)cccc1F)Nc1cc(Cl)cc(Cl)c1` [US10322118, Urea-Based Scaffold Entry 4], the IC50 (Putative hydrolase) is reported as 1.5 µM.

In the case of `CN(C(=O)NC(=O)c1c(F)cccc1F)c1ccc(Cl)cc1` [US10322118, Urea-Based Scaffold Entry 7], the IC50 (Putative hydrolase) is reported as over 100 µM.

Compound `CCCCCCCCCCCCS(C)(=O)=O` [US10322118, Urea-Based Scaffold Entry 8] has an IC50 [1] of 33.3 µM.

In the case of `Cc1ccc(-c2cc(C(F)(F)F)nn2-c2ccc(S(N)(=O)=O)cc2)cc1` [US10322118, Urea-Based Scaffold Entry 9], the IC50 (Putative hydrolase) is reported as 7.4 µM.
